The source of these data is patent US12715850B2, “Low toxicity NMP substitutes and uses thereof” (Advancion Corporation, priority 2020, dated 2026).

SMILES strings stand for the structures.

The nature of data set [1]: Solubility of the product in water and mineral oil. Type of data set: physicochemical. Here is the method: The resulting nitro amidef was added to a 2 L Parr reactor along with 300 g methanol and 30 g of damp Raney® nickel. The reactor was purged with hydrogen. The reagents were stirred and reacted at 65° C. and 750 psig hydrogen. In a separate vessel, a blend of 400 g (2.13 mol) of nitroamide (prepared in previous example) and 431 g (5.31 mol) of formaldehyde (37% aqueous, Fisher Scientific) was prepared. The nitroamide/formaldehyde mixture was added to the reactor under stirring while maintaining 65° C. Followed by flushing with 50 g (0.62 mol) of 37% aqueous formaldehyde. The reactor contents were held at 65° C. for 2 hours followed by cooling to 25° C. The reactor was vented and the catalyst filtered off the product. After rinsing the catalyst with methanol (2×20 mL), the filtrate was concentrate under vacuum. The product was isolated and purified using vacuum distillation to provide a pale yellow liquid recovered in 75% yield from DMAA having purity >99% by GC-FID. The boiling point was determined to be 170° C. at 40 mmHg, 145° C. at 15 mmHg, and 137° C. at 10 mmHg. ^1H NMR (400 MHz, D2O): d=2.95 (s, 3H), 2.88 (s, 3H), 2.24 (m, 2H), 2.05 (s, 6H), 1.54 (m, 2H), 0.91 (s, 6H).

The test system of another data set is experimental animals. To be noted: high levels over short time by inhalation, dermal exposure, and ingestion; cited from earlier work.
For data set [2], the system named is animals. As to conditions: long-term oral exposures in animals; cited from earlier work.
Data set [3] has as its system animals. As to conditions: animals ingested NMP repeatedly at lower levels; cited from earlier work.
For data set [4] the following is noted: following inhalation, oral and dermal exposure in humans and animals; cited from earlier work.
For data set [5] the following is noted: oral reproduction toxicity study; at doses lower than those that caused maternal toxicity; cited from earlier work.

Consider `CN(C)C(=O)CCC(C)(C)N(C)C` [Example 3, 4-(dimethylamino)-N,N-4-trimethylpentamide], for which the “solubility in mineral oil” value in data set [1] (mineral oil) is given as “soluble”. Moreover, in data set [1] (water), the solubility in water entry is “soluble”.
`CN1CCCC1=O` [NMP, N-methyl-2-pyrrolidone]: the toxicity result with experimental animals is given as “low toxicity”. Moreover, in the data set on animals [2], the “effects of long-term oral exposures” value was “increased incidence of large kidneys, kidneys diagnosed with chronic problems, fluid in the pleural cavity and small testes”. For the same compound, the adverse effects entry in the data set on animals [3] was “changes in body weight, liver weight, neurotoxicity, and thymus atrophy”. The absorption entry in data set [4] is on record as “well absorbed”. Further, in data set [5], the developmental toxicity entry is “decrease in fetal weight and malformations”.
